We go through two compounds from patent US4728734A, “C-3'thioiminosulfonyl cephalosporin analogs” (American Home Products Corporation, priority 1985, dated 1988).

In brackets after ≈: the same amount, converted by molar mass. Structures can show the parent of a compound that is named as a salt.

Common to all, as to format: cell-based
Assay [1] deals with Serratia marcescens ATCC 13880. The assay is described as follows: Antibacterial activity, agar dilution MIC, Serratia marcescens ATCC 13880. Conditions: ATCC13880, 18 hours at 35° C. As for the experimental part:
(§1) The compounds of the invention are tested for their antibacterial activity. The test is carried out as follows:
(§2) The organisms used in the test comprise the following:
(§3) Staphylococcus aureus (penicillin-sensitive and resistant), Pseudomonas aeruginosa, Escherichia coli, […] pneumoniae, Bordetella bronchiseptica, Proteus vulgaris, P. mirabilis, Acinetobacter calcoaceticus.
(§4) Test organisms may be added or deleted in order to reflect current clinical patterns of antibiotic susceptibility or shifts in pathogenic potential.
(§5) Organisms are normally grown for 18 hours in Brain Heart Infusion at 35° C. Cultures are adjusted with saline to MacFarland No. 1.5 standard prior to use.
(§6) Stock concentrations (e.g. 2,5000 μg or units per ml) are prepared in a suitable vehicle. Two-fold dilutions are made. One ml quantities of each dilution are incorporated in 9 ml of the appropriate agar (e.g. Seed) in sterile Petri plates. The hardened surface is inoculated with test organisms by use of a Steers replicating device. The plates are incubated (e.g. 18 hours at 35° C.) and activity is determined.

In assay [2] the test system is Escherichia coli ATCC 25922. Briefly: Antibacterial activity, agar dilution MIC, Escherichia coli ATCC 25922. Conditions: ATCC25922, 18 hours at 35° C. The method, then: as §1, §2, §3, §4, §5, §6
Background: In agar dilution, organisms are placed on agar that contains the substance at set levels.

For assay [3], the system named is Streptococcus faecalis ATCC 29212. The assay is described as follows: Antibacterial activity, agar dilution MIC, Streptococcus faecalis ATCC 29212. Conditions: Enterococcus faecalis, ATCC29212, 18 hours at 35° C. As for the experimental part: as §1, §2, §3, §4, §5, §6
Assay [4] has as its system Klebsiella pneunomiae KL-1. Briefly: Antibacterial activity, agar dilution MIC, Klebsiella pneunomiae KL-1. Conditions: KL1, 18 hours at 35° C. As for the experimental part:
as §1, §2, §3, §4, §5, §6

Assay [5] deals with Enterobacter cloacae ATCC 13047. Briefly: Antibacterial activity, agar dilution MIC, Enterobacter cloacae ATCC 13047. Conditions: ATCC13047, 18 hours at 35° C. As for the experimental part:
as §1, §2, §3, §4, §5, §6

Assay [6] concerns Proteus vulgaris A 84354 1. The assay is described as follows: Antibacterial activity, agar dilution MIC, Proteus vulgaris A 84354 1. Conditions: A843541, 18 hours at 35° C. The method, then:
as §1, §2, §3, §4, §5, §6

The test system of assay [7] is Pseudomonas aeruginosa ATCC 27853. Briefly: Antibacterial activity, agar dilution MIC, Pseudomonas aeruginosa ATCC 27853. As to conditions: ATCC27853, 18 hours at 35° C. As for the experimental part:
as §1, §2, §3, §4, §5, §6

Assay [8] has as its system Staphylococcus aureus ATCC 29213. The assay is described as follows: Antibacterial activity, agar dilution MIC, Staphylococcus aureus ATCC 29213. As to conditions: ATCC29213, 18 hours at 35° C. As for the experimental part:
as §1, §2, §3, §4, §5, §6

Consider `CO/N=C(\C(=O)N[C@@H]1C(=O)N2C(C(=O)O)=C(CSC3=NS(=O)(=O)c4cscc43)CS[C@H]12)c1csc(N)n1` [Example 1 C., (6R,7R)-7-[[(2-Amino-4-thiazolyl)(methoxyimino)acetyl]amino]-8-oxo-3-[(thieno-[3,4-d]isothiazol-3-ylthio)methyl]-5-thia-1-azabicyclo[4.2.0]oct-2-ene-2-carboxylic acid S^3,S^3-dioxide, trifluoroacetate salt], for which the MIC in assay [1] is 2 µg/mL; in assay [2], 2 µg/mL; in assay [3] it was 256 µg/mL; in assay [4], below 1 µg/mL; in assay [5], 32 µg/mL; in assay [6], below 1 µg/mL. Further, the results for the MIC in assay [7] and in assay [8] were above 256 µg/mL and 32 µg/mL, respectively.

In the case of `CO/N=C(\C(=O)N[C@@H]1C(=O)N2C(C(=O)OC(C)(C)C)=C(CSC3=NS(=O)(=O)c4cscc43)CS[C@H]12)c1csc(N)n1` [Example 1 B., (6R,7R)-7[[(2-Amino-4-thiazolyl)(methoxyimino)acetyl]amino]-8-oxo-3-[(thieno[3,4-d]isothiazol-3-ylthio)methyl]-5-thia-1-azabicyclo[4.2.0]oct-2-ene-2-carboxylic acid 1,1-dimethylethyl ester S^3,S^3-dioxide], the MIC is 32 µg/mL (≈ 48.7 µM) in assay [1]; 8 µg/mL (≈ 12.2 µM) in assay [2]; above 256 µg/mL in assay [3]; 2 µg/mL (≈ 3.04 µM) in assay [4]; above 256 µg/mL in assay [5]; 2 µg/mL (≈ 3.04 µM) in assay [6]. Further, the MIC in assay [7] was above 256 µg/mL; in assay [8], 128 µg/mL (≈ 195 µM).

As usually defined, the MIC is the lowest concentration that inhibits growth of the organism. Higher therefore signals weaker potency.
